Assay results as given in US20100041662A1, “Heterocyclic compounds as antiinflammatory agents” (priority 2006, published 2010).

Experiments:
[1] = tested on: Phospho-PKB in U87MG cells; experiment: Detection of phospho-PKB in U87MG cells by ELISA; assay type: cell-based; conditions: Homo sapiens, U-87 MG; assay not given; follows the PI3K/DNA-PK/phospho-PKB U87MG methods
Description: U87MG cells (human glioblastoma, ATCC No. HTB-14) are trypsinized, counted in a CASY cell counter (Schärffe systems, Göttingen, Germany), diluted in fresh complete DMEM high glucose medium to load, per well, 150 μL cell suspension containing 4×10^4 cells, and test plates incubated for 18 hours. In parallel, 50 μL of coating antibody, at the desired concentration in PBS/O is loaded in each well of the ELISA plates, and plates are kept for 2 hours at room temperature. This ELISA assays is performed in black flat-bottom 96-well plates (Microtest™, Falcon Becton-Dickinson, Ref.: 353941) sealed with Plate Sealers (Costar-Corning, Ref: 3095). Medium in plates is discarded and replaced by complete DMEM high glucose medium containing either 0.1% DMSO or 0.1% inhibitor at titers (7) between […] in DMSO. After 30 minutes of contact, the medium is quickly removed by aspiration, plates are then placed on ice and immediately cells lyzed with 70 μL of Lysis buffer. In parallel, the 96 wells plates prepared with the coating antibody (1/250 diluted (in PBS/O) Anti-Akt1 C-20, goat, Santa-Cruz-1618, Santa Cruz Biotechnology, Inc., Santa Cruz, Calif., USA) are washed 3 times for 1 minute with PBS/O containing 0.05% Tween 20 and 0.1% Top-Blocks (derivative of gelatine that blocks unspecific binding sites on surfaces; Sigma-Aldrich, Fluka, Buchs, Switzerland, Ref.: 37766), and remaining protein binding sites blocked to prevent non-specific interactions with 200 μL of PBS containing 3% Top Block®, for 2 hours at room temperature. Well content is replaced with 50 μL of samples from treated cells, and plates are incubated for 3 hours at 4° C. The ELISA assays are always done in parallel with the following controls, in 6 replicates: U87MG (untreated control) or Lysis buffer alone (LB). […] The luminescence is read immediately on a Top-Count NXT (Packard Bioscience) luminometer.

[2] = tested on: dimethylnitrosamine induced liver fibrosis; conditions: cited from earlier work
[3] = given therapeutically to rat, 3 weeks treatment

Row | SMILES | IC50 [1] | side effects ([2]; during the 3 weeks treatment) | inhibited extracellular matrix deposition [2, 3] | prevented death rate [2, 3]
1 | OC1CCC(Nc2ccc3ncc(-c4ccc(-n5cccn5)cc4)n3n2)CC1 (stereo not drawn) [Example 1.5, 4-[3-(4-Pyrazol-1-yl-phenyl)-imidazo[1,2-b]pyridazin-6-ylamino]-cyclohexanol] | 106 nM | – | – | –
2 | c1ccc(-c2cc(-c3cn[nH]c3-c3ccccn3)ccn2)cc1 [GW6604] | – | no obvious side effects | 60% | 40%
3 | OC1CCC(Nc2ccc3ncc(-c4ccc(-n5cncn5)cc4)n3n2)CC1 (stereo not drawn) [Example 1.8, 4-[3-(4-[1,2,4]Triazol-1-yl-phenyl)-imidazo[1,2-b]pyridazin-6-ylamino]-cyclohexanol] | 666 nM | – | – | –
4 | OCC1CCC(Nc2ccc3ncc(-c4ccc(-n5cccn5)cc4)n3n2)CC1 (stereo not drawn) [Example 1.9, {4-[3-(4-Pyrazol-1-yl-phenyl)-imidazo[1,2-b]pyridazin-6-ylamino]-cyclohexyl}-methanol] | 753 nM | – | – | –
